Source: patent US20220220135A1 (BAR-ILAN UNIVERSITY, priority 2019, published 2022)

What was measured:
[1] = biological target: T1, NTPDase1 (Homo sapiens, UniProt P49961); experiment: Inhibition of ATPase activity of human NTPDase1; assay type: biochemical; conditions: analogue at 100 μM; ATP 100 μM as substrate
T1 sequence (P49961 1-510): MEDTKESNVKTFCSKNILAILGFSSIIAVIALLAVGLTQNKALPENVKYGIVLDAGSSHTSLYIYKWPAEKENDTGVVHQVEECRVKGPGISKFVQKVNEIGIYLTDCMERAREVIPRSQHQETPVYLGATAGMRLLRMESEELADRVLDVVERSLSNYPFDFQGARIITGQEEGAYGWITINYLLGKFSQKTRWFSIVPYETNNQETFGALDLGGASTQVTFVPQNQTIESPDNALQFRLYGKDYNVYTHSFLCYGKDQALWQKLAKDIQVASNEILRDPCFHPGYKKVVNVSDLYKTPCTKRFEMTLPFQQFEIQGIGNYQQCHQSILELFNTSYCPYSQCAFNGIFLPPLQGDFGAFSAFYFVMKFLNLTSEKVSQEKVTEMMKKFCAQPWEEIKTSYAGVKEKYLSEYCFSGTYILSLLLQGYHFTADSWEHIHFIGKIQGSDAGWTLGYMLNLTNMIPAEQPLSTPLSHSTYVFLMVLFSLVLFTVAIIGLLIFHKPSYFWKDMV
Experimental: FIG. 2: Inhibition of NTPDases and NPPs by analogues 9-12 using as substrates ATP (100 μM) for NTPDase1,2,3,8 and pNP-TMP (100 μM) for NPP1,3 (Panel A); and ATP (100 μM) was used as the substrate for NPP1 (Panel B);
At least 2 independent experiments were performed. In panel A, the activity with 100 μM ATP was set as 100%, which was 287±31, 395±67, 278±22, 119±26 nmol of Pi·min−1·mg of protein−1 for human NTPDase1, -2, -3 and -8, respectively, and the activity with 100 μM pNP-TMP was set as 100% which was 67±5, 21±1 nmol of p-nitrophenol·min−1·mg of protein−1 for human NPP1 and NPP3, respectively. In panel B, the activity with 100 μM ATP was set as 100% which was 34±7 nmol of PPi·min−1·mg of protein−1 for NPP1.

[2] = Chemical stability under acidic and basic conditions by 31P-NMR
From the text: To evaluate the chemical stability of uridine-5′-Pα,α-dithiophosphate analogues, we measured by 31P-NMR the time-dependent percentage of the analogues remaining under basic and acidic conditions, and due to air-oxidation.

[3] = biological target: T2, NPP1 (Homo sapiens, UniProt P22413); experiment: Stability to hydrolysis by human NPP1; assay type: in vitro ADME; conditions: analogue 100 μM; activity with 100 μM ATP = 100%
T2 sequence (P22413 1-925): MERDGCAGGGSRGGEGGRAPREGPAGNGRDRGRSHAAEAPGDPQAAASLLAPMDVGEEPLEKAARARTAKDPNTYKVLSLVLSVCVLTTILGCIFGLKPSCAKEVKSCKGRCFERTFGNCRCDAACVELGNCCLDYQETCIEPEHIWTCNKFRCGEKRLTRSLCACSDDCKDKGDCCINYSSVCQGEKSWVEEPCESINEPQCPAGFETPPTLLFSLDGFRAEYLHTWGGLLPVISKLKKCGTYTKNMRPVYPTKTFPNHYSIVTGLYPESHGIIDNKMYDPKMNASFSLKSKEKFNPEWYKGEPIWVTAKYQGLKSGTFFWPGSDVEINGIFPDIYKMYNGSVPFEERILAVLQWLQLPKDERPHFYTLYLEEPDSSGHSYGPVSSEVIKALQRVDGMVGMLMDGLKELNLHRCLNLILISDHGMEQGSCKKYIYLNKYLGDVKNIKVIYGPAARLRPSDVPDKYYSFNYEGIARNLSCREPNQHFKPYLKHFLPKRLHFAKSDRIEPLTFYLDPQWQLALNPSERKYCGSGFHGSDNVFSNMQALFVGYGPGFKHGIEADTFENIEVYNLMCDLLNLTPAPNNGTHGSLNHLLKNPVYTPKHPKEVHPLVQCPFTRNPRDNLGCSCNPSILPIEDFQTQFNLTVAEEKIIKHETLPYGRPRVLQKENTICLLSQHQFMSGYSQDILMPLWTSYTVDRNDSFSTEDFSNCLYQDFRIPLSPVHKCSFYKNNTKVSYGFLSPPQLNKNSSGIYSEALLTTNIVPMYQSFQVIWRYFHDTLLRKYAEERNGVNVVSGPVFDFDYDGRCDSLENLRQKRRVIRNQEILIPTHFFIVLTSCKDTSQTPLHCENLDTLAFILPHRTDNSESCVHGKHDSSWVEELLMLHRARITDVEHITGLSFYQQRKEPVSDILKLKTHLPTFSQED
Experimental: Uridine 5′-Pα,α-phosphorodithioate analogues, 9-12, were tested for their stability to degradation by NPP1 and NTPDases. These enzymes are involved in the metabolism of extracellular nucleotides. Analogues 9-12 were not hydrolyzed by hNPP1 (Table 2). […] Analogue 10 was hydrolyzed by hNTPDase1, -2 and -3 at 30-39% the rate of ATP and was slightly hydrolyzed by human NTPDase8 at 16% the rate of ATP.
Analogues 9-12 were incubated in the presence of the indicated ectonucleotidase at a concentration of 100 μM. The activity with 100 μM ATP was set as 100%, which was 329±108, 302±34, 263±51, 195±76 nmol of Pi·min−1·mg of protein−1 for NTPDase1, -2, -3 and -8, respectively, and 34±7 nmol for NPP1. Data presented are the mean±SEM of results from two experiments.

With O=c1ccn([C@@H]2O[C@H](COP(=S)(S)OP(=O)(O)OP(=O)(O)OP(=S)(S)OC[C@H]3O[C@@H](n4ccc(=O)[nH]c4=O)[C@H](O)[C@@H]3O)[C@@H](O)[C@H]2O)c(=O)[nH]1 (stereo partly drawn) [Analogue 12] the “inhibition of human NTPDase1” value [1] was “selective to NPP1”, the loss of compound ([2]; basic, pD 12.6, after 16 days) was 13% and the decomposition ([2]; pD 1.8 (pH 1.4), 16 days, RT) was 6%. The “Relative activity (%) ± SEM of ATP hydrolysis, NPP1” value (“Relative activity (%) ± SEM” below) [3] was 0%.

For O=c1ccn([C@@H]2O[C@H](COP(=S)(S)OP(=O)(O)OP(=O)(O)O)[C@@H](O)[C@H]2O)c(=O)[nH]1 (stereo partly drawn) [Analogue 10], the “inhibition of human NTPDase1” value [1] was “no inhibition”, the decomposition ([2]; basic, pD 12.1, after 25 days) was 24% and the “decomposition of starting material” value ([2]; pD 2.1 (pH 1.7), RT, 23 days) was 15%. For the same compound, the “Relative activity (%) ± SEM” value [3] was 0%.

In the case of O=c1ccn([C@@H]2O[C@H](COP(=S)(S)OP(=O)(O)CP(=O)(O)O)[C@@H](O)[C@H]2O)c(=O)[nH]1 (stereo partly drawn) [Analogue 11], the “inhibition of human NTPDase1” value [1] is reported as “negligible effects”, the decomposition ([2]; basic, pD 12.1, after 25 days) is reported as 23% and the decomposition ([2]; pD 2.1, after 25 days) is reported as 6%. For the same compound, the “Relative activity (%) ± SEM” value [3] was 0%.
